In ChEMBL document CHEMBL1141926, “Synthesis and anthelmintic activity of 7-substituted 3,4a-dimethyl-4a,5a,8a,8b-tetrahydro-6H-pyrrolo[3',4':4,5]furo[3,2-b]pyridine-6,8(7H)-diones” (Bioorg Med Chem Lett, 2005):

What was measured:
Haemonchus contortus [1] = assay: In vivo percentage Haemonchus contortus egg reduction in sheep at dose 0.05 mg/kg body weight; type: functional
[2] = Partition coefficient (logP) (HPLC); type: physicochemical; settings: octanol/water
Haemonchus contortus [3] = assay: In vivo percentage Haemonchus contortus egg reduction in sheep at dose 0.25 mg/kg body weight; Range 50-75%; type: functional
Haemonchus contortus [4] = assay: In vivo percentage Haemonchus contortus egg reduction in sheep at dose. 20 mg/kg body weight; type: functional, organism-based; set-up: dose 20 mg/kg; settings: at 20 mg/kg
Haemonchus contortus [5] = assay: In vivo percentage Haemonchus contortus egg reduction in sheep at dose 0.25 mg/kg body weight; type: functional
Haemonchus contortus [6] = assay: In vivo percentage Haemonchus contortus egg reduction in sheep at dose 0.01 mg/kg body weight; type: functional
Haemonchus contortus [7] = assay: In vivo percentage Haemonchus contortus egg reduction in sheep at dose 0.10 mg/kg body weight; type: functional; settings: dose 0.1 mg/kg
Haemonchus contortus [8] = assay: In vivo percentage Haemonchus contortus egg reduction in sheep at dose 20 mg/kg body weight; type: functional

logP [2]	Compound	Reduction (Haemonchus contortus [1])	also measured
0.5	CC1=CC2(C)OC3C(=O)N(C4CC4)C(=O)C3C2N=C1 (stereo not drawn)	>=95%	
0.46	CCN1C(=O)[C@H]2[C@@H](O[C@]3(C)C=C(C)C=N[C@@H]23)C1=O		Reduction (Haemonchus contortus [3]): 75%
1.3	CCCCN1C(=O)C2OC3(C)C=C(C)C=NC3C2C1=O (stereo not drawn)	>=95%	
	IVERMECTIN		Reduction (Haemonchus contortus [4]): > 95%
0.46	CCN1C(=O)[C@@H]2[C@H](O[C@@]3(C)C=C(C)C=N[C@H]23)C1=O		Reduction (Haemonchus contortus [5]): >=95%
0.46	CCN1C(=O)C2OC3(C)C=C(C)C=NC3C2C1=O (stereo not drawn)		Reduction (Haemonchus contortus [6]): >=95%
1.51	CC1=CC2(C)OC3C(=O)N(Cc4ccccc4)C(=O)C3C2N=C1 (stereo not drawn)		Reduction (Haemonchus contortus [7]): >=95%
< 0	CC1=CC2(C)OC3C(=O)N(C)C(=O)C3C2N=C1 (stereo not drawn)		Reduction (Haemonchus contortus [7]): >=95%
1.7	CC1=CC2(C)OC3C(=O)N([C@@H](C)c4ccccc4)C(=O)C3C2N=C1 (stereo partly drawn)	>=95%	
	COC(=O)Nc1nc2cc(C(=O)c3ccccc3)ccc2[nH]1 [MEBENDAZOLE]		Reduction (Haemonchus contortus [8]): >=95%
